Experimental findings from ChEMBL document CHEMBL4699665, “Discovery of ANT3310, a Novel Broad-Spectrum Serine β-Lactamase Inhibitor of the Diazabicyclooctane Class, Which Strongly Potentiates Meropenem Activity against Carbapenem-Resistant Enterobacterales and Acinetobacter baumannii” (J Med Chem, 2020) are described below.

A short description of data set [1]: Half life in rat at 1 mg/kg, iv. Type of data set: ADME, organism-based. As to conditions: in vivo.
A short description of data set [2]: Inhibition of beta lactamase AmpC in Enterobacter cloacae assessed as decrease in enzyme activity using nitrocefin as substrate preincubated for 10 mins followed by substrate addition measured for 10 mins by fluorescence plate reader analysis.
Data set [3] in a line: Inhibition of beta lactamase CTXM-15 in Enterobacter cloacae assessed as decrease in enzyme activity using nitrocefin as substrate preincubated for 10 mins followed by substrate addition measured for 10 mins by fluorescence plate reader analysis.
A short description of data set [4]: Inhibition of beta lactamase TEM-1 in Enterobacter cloacae assessed as decrease in enzyme activity using nitrocefin as substrate preincubated for 10 mins followed by substrate addition measured for 10 mins by fluorescence plate reader analysis.
Data set [5] can be described thus: Inhibition of beta lactamase OXA-48 in Enterobacter cloacae assessed as decrease in enzyme activity using nitrocefin as substrate preincubated for 10 mins followed by substrate addition measured for 10 mins by fluorescence plate reader analysis.
Data set [6] in a line: Inhibition of beta lactamase KPC-2 in Enterobacter cloacae assessed as decrease in enzyme activity using nitrocefin as substrate preincubated for 10 mins followed by substrate addition measured for 10 mins by fluorescence plate reader analysis.
The nature of data set [7]: Inhibition of bacteria beta lactamase OXA-23 assessed as decrease in enzyme activity using nitrocefin as substrate preincubated for 10 mins followed by substrate addition measured for 10 mins by fluorescence plate reader analysis.
Data set [8] concerns Enterobacter cloacae. Put plainly: Potentiation of meropenem-induced antibacterial activity against Enterobacter cloacae expressing TEM-1/KPC-2 assessed as meropenem MIC at 4 ug/ml by broth microdilution method (reference value: 8 ug/ml). Type of data set: functional. As to conditions: dose 4 µg/ml.
Data set [9] has as its system Klebsiella pneumoniae. Put plainly: Potentiation of meropenem-induced antibacterial activity against Klebsiella pneumoniae expressing TEM-OSBL/CTX-M-14/OXA-48 assessed as meropenem MIC at 4 ug/ml by broth microdilution method (reference value: 16 ug/ml). The format is functional. As to conditions: dose 4 µg/ml.
Data set [10] has as its system Klebsiella pneumoniae. Put plainly: Potentiation of meropenem-induced antibacterial activity against Klebsiella pneumoniae expressing TEM-1/SHV-11/KPC-3 assessed as meropenem MIC at 4 ug/ml by broth microdilution method (reference value: 128 ug/ml). The following applies: dose 4 µg/ml. The format is functional.
Data set [11] deals with Klebsiella pneumoniae. Put plainly: Potentiation of meropenem-induced antibacterial activity against Klebsiella pneumoniae expressing SHV-11/OXA-121 assessed as meropenem MIC at 4 ug/ml by broth microdilution method (reference value: 16 ug/ml). As to conditions: dose 4 µg/ml. The format is functional. On the technique in general: Dilution methods test growth across graded concentrations, often in twofold steps.

Data set [12] has as its system Acinetobacter baumannii. Put plainly: Potentiation of meropenem-induced antibacterial activity against Acinetobacter baumannii expressing OXA-23 assessed as meropenem MIC at 4 ug/ml by broth microdilution method (reference value: 32 ug/ml). The format is functional. As to conditions: dose 4 µg/ml.
Data set [13] relates to Enterobacter cloacae. Put plainly: Antibacterial activity against Enterobacter cloacae expressing TEM-1/KPC-2 by broth microdilution method. The format is functional.
Data set [14] concerns Klebsiella pneumoniae. Put plainly: Antibacterial activity against Klebsiella pneumoniae expressing TEM-OSBL/CTX-M-14/OXA-48 by broth microdilution method. Type of data set: functional.
Data set [15] has as its system Klebsiella pneumoniae. Put plainly: Antibacterial activity against Klebsiella pneumoniae expressing TEM-1/SHV-11/KPC-3 by broth microdilution method. Type of data set: functional.
For data set [16], the system named is Klebsiella pneumoniae. Put plainly: Antibacterial activity against Klebsiella pneumoniae expressing SHV-11/OXA-181 by broth microdilution method. Type of data set: functional.
Data set [17] deals with Acinetobacter baumannii. Put plainly: Antibacterial activity against Acinetobacter baumannii expressing OXA-23 by broth microdilution method. The format is functional.
A short description of data set [18]: AUC in rat at 1 mg/kg, iv. The following applies: in vivo. Type of data set: ADME, organism-based. Further details: dose 1 mg/kg.
Data set [19] can be described thus: Clearance in rat at 1 mg/kg, iv. The format is ADME, organism-based. As to conditions: in vivo.
Data set [20] is described as follows: Volume of distribution in rat at 1 mg/kg, iv. Type of data set: ADME, organism-based. As to conditions: in vivo.
In data set [21] the test system is Enterobacter. Put plainly: Inhibition of beta lactamase KPC in carbapenem-resistant Enterobacter assessed as meropenem-induced antibacterial activity by measuring meropenem MIC50 at 4 ug/ml by broth microdilution method (Rvb >32 ug/ml). The following applies: dose 4.0 µg/ml.
The test system of data set [22] is Enterobacter. Put plainly: Inhibition of beta lactamase KPC in carbapenem-resistant Enterobacter assessed as meropenem-induced antibacterial activity by measuring meropenem MIC90 at 4 ug/ml by broth microdilution method (Rvb >32 ug/ml). As to conditions: dose 4.0 µg/ml.
In data set [23] the test system is Enterobacter. Put plainly: Inhibition of beta lactamase KPC in carbapenem-resistant Enterobacter assessed as meropenem minimum concentration required for antibacterial activity at 4 ug/ml by broth microdilution method (reference value: 4 ug/ml). As to conditions: dose 4.0 µg/ml.
In data set [24] the test system is Enterobacter. Put plainly: Inhibition of beta lactamase KPC in carbapenem-resistant Enterobacter assessed as meropenem maximum concentration required for antibacterial activity at 4 ug/ml by broth microdilution method (Rvb >32 ug/ml). As to conditions: dose 4.0 µg/ml.
The subject of data set [25] is Enterobacter. Put plainly: Inhibition of beta lactamase OXA in carbapenem-resistant Enterobacter assessed as meropenem-induced antibacterial activity by measuring meropenem MIC50 at 4 ug/ml by broth microdilution method (reference value: 16 ug/ml). The following applies: dose 4.0 µg/ml.
The subject of data set [26] is Enterobacter. Put plainly: Inhibition of beta lactamase OXA in carbapenem-resistant Enterobacter assessed as meropenem-induced antibacterial activity by measuring meropenem MIC 90 at 4 ug/ml by broth microdilution method (Rvb >32 ug/ml). As to conditions: dose 4.0 µg/ml.
Data set [27] relates to Enterobacter. Put plainly: Inhibition of beta lactamase OXA in carbapenem-resistant Enterobacter assessed as meropenem minimum concentration required for antibacterial activity at 4 ug/ml by broth microdilution method (reference value: 2 ug/ml). As to conditions: dose 4.0 µg/ml.
Data set [28] deals with Enterobacter. Put plainly: Inhibition of beta lactamase OXA in carbapenem-resistant Enterobacter assessed as meropenem maximum concentration required for antibacterial activity at 4 ug/ml by broth microdilution method (Rvb > 32 ug/ml). The following applies: dose 4.0 µg/ml.
Data set [29] concerns Acinetobacter baumannii. Put plainly: Inhibition of beta lactamase OXA in carbapenem-resistant Acinetobacter baumannii assessed as meropenem-induced antibacterial activity by measuring meropenem MIC50 at 4 ug/ml by broth microdilution method (Rvb > 32 ug/ml). The following applies: dose 4.0 µg/ml.
The test system of data set [30] is Acinetobacter baumannii. Put plainly: Inhibition of beta lactamase OXA in carbapenem-resistant Acinetobacter baumannii assessed as meropenem-induced antibacterial activity by measuring meropenem MIC90 at 4 ug/ml by broth microdilution method (Rvb > 32 ug/ml). The following applies: dose 4.0 µg/ml.
Data set [31] relates to Acinetobacter baumannii. Put plainly: Inhibition of beta lactamase OXA in carbapenem-resistant Acinetobacter baumannii assessed as meropenem minimum concentration required for antibacterial activity at 4 ug/ml by broth microdilution method (reference value: 8 ug/ml). The following applies: dose 4.0 µg/ml.
Data set [32] deals with Acinetobacter baumannii. Put plainly: Inhibition of beta lactamase OXA in carbapenem-resistant Acinetobacter baumannii assessed as meropenem maximum concentration required for antibacterial activity at 4 ug/ml by broth microdilution method (Rvb > 32 ug/ml). As to conditions: dose 4.0 µg/ml.

The term half-life denotes the time needed for the level to fall by half in the phase considered. As a reminder, the IC50 is the concentration that inhibits the measured activity by half. One may read the AUC as the area under the concentration-time curve, a measure of exposure. Usually clearance stands for the rate of elimination divided by the concentration. Higher therefore signals a high capacity for elimination. What is called Vd is the apparent volume that relates the amount in the body to the concentration in plasma or blood. Higher therefore signals extensive tissue distribution.

Each structure is given as a SMILES string. ≈ marks a conversion by molar mass, not a printed value.

The molecule `NC(=O)[C@@H]1CC[C@@H]2CN1C(=O)N2OS(=O)(=O)O` [AVIBACTAM] gave a half-life in [1] of 22.2 min. The half-maximal inhibitory concentration (IC50) in [2] was 8 nM; in [3], 1 nM; in [4], 5 nM; in data set [5] it was 252 nM; in [6] it was 8 nM; in data set [7], more than 3000 nM. The MIC is 0.03 µg/mL in data set [8]; 0.5 µg/mL in data set [9]; 0.25 µg/mL in data set [10]; 1 µg/mL in data set [11]; 16 µg/mL in data set [12]; 16 µg/mL (≈ 60.3 µM) in data set [13]. In addition, the MIC was 16 µg/mL (≈ 60.3 µM) in data set [14], 16 µg/mL (≈ 60.3 µM) in [15], 32 µg/mL (≈ 121 µM) in data set [16] and more than 128 µg/mL in [17]. Moreover, in [18], the AUC amounted to 279 ng·h/mL. For the same molecule, the clearance in data set [19] was 59 mL/min/kg. Further, in data set [20], the Vd worked out at 1.9 L/kg.

Consider `N#C[C@@H]1CC[C@@H]2CN1C(=O)N2OS(=O)(=O)[O-].[Na+]`, for which the IC50 is 3 nM in [2]; 4 nM in [3]; 67 nM in [4]; 2 nM in data set [5]; 8 nM in data set [6]; 59 nM in [7]. In addition, the MIC in data set [8] was 0.06 µg/mL; in data set [9], 0.06 µg/mL; in [10] it was 0.5 µg/mL; in data set [11] it was 0.25 µg/mL; in data set [12] it was 4 µg/mL; in data set [23], less than 0.03 µg/mL. The MIC in data set [27] was less than 0.03 µg/mL; in data set [31], 0.25 µg/mL. Moreover, the figures for the MIC50 in data set [21], in data set [25] and in data set [29] were 0.06 µg/mL, 0.12 µg/mL and 16 µg/mL, respectively. The values for the MIC90 in data set [22], in data set [26] and in data set [30] were 1 µg/mL, 0.25 µg/mL and 32 µg/mL, respectively. Further, the Activity in [24] was 16 µg/mL; in [28], 0.5 µg/mL; in [32] it was more than 32 µg/mL.
